Measured values reported in patent publication US20130072440A1, “CO-CRYSTALS AND PHARMACEUTICAL FORMULATIONS COMPRISING THE SAME” (VERTEX PHARMACEUTICALS INCORPORATED, priority 2010, published 2013).
In brackets after ≈: the same amount, converted by molar mass.

Assay: Kinetic solubility in Fed State Simulated Intestinal Fluid (FESSIF)
Type: physicochemical
Settings: thermodynamic from solid
Method: Kinetic solubility profiles of VX-950 co-crystal fluid bed granules were determined in Fed State Simulated Intestinal Fluid (FESSIF).
[…] of VX-950 co-crystal fluid-bed granules were dissolved in 100 ml of FESSIF.
The experiment of Example was repeated with 166.51 mg of VX-950 co-crystal fluid-bed granules.
Kinetic solubility of the following substances or formulations were measured in FESSIF: […]

## CCC[C@H](NC(=O)[C@@H]1[C@H]2CCC[C@H]2CN1C(=O)[C@@H](NC(=O)[C@@H](NC(=O)c1cnccn1)C1CCCCC1)C(C)(C)C)C(=O)C(=O)NC1CC1 [Crystalline VX-950]
  solubility kinetic at 15 min: 5 µg/mL (≈ 7.35 µM)
  solubility kinetic at 30 min: 5 µg/mL (≈ 7.35 µM)
  solubility kinetic at 45 min: 5 µg/mL (≈ 7.35 µM)
  solubility kinetic at 60 min: 4.5 µg/mL (≈ 6.62 µM)
  solubility kinetic at 90 min: 4 µg/mL (≈ 5.88 µM)
  solubility kinetic at 180 min: 4 µg/mL (≈ 5.88 µM)
